Experimental data from paper PMC8209004, “Structural basis of GTPase-mediated mitochondrial ribosome biogenesis and recycling” (Nature Communications, 2021).

Molecular target: T1, GTPBP6 (Homo sapiens, UniProt O43824)
T1 construct: Δ43GTPBP6 (first 43 residues removed); 6xHis-MBP tag cleaved with TEV; expressed in E. coli BL21 (DE3) RIL; modelled residues 94-515
T1 sequence (O43824 44-516): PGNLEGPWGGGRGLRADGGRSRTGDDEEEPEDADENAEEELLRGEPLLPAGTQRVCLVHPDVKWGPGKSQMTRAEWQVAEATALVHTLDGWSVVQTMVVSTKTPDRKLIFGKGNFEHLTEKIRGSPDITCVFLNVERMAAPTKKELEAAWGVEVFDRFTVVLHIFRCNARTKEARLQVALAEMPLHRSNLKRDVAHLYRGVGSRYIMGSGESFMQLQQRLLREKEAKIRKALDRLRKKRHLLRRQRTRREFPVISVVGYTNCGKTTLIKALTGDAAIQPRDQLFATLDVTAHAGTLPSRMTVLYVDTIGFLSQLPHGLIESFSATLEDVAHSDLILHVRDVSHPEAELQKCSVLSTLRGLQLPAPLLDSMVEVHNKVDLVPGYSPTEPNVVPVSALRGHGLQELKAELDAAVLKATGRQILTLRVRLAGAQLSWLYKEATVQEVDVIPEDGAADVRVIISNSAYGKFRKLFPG
Assay: cryo-EM structure of GTPBP6-bound mtLSU
Type: binding
Conditions: bound in GTPase domain; 1 mM GTP and 1 mM ATP, pH 7.4, 4 °C; biogenesis intermediate at 2.6 Å and mature mtLSU at 2.7 Å

Nc1nc2c(ncn2[C@@H]2O[C@H](COP(=O)(O)OP(=O)(O)OP(=O)(O)O)[C@@H](O)[C@H]2O)c(=O)[nH]1 [GTP]
cryo-EM structure of GTPBP6-bound mtLSU: shows clear density for a bound GTP molecule
